Measured values: PMC11460631, “Inhibition of transient receptor potential vanilloid 3 channels by antimalarial hydroxychloroquine alleviates TRPV3-dependent dermatitis” (The Journal of Biological Chemistry, 2024)

Target: T1, TRPV3 (Homo sapiens, UniProt Q8NET8)
T1 construct: YFP or GFP; expressed in transfected cells; host or cells: HEK293T
T1 sequence (Q8NET8 1-790): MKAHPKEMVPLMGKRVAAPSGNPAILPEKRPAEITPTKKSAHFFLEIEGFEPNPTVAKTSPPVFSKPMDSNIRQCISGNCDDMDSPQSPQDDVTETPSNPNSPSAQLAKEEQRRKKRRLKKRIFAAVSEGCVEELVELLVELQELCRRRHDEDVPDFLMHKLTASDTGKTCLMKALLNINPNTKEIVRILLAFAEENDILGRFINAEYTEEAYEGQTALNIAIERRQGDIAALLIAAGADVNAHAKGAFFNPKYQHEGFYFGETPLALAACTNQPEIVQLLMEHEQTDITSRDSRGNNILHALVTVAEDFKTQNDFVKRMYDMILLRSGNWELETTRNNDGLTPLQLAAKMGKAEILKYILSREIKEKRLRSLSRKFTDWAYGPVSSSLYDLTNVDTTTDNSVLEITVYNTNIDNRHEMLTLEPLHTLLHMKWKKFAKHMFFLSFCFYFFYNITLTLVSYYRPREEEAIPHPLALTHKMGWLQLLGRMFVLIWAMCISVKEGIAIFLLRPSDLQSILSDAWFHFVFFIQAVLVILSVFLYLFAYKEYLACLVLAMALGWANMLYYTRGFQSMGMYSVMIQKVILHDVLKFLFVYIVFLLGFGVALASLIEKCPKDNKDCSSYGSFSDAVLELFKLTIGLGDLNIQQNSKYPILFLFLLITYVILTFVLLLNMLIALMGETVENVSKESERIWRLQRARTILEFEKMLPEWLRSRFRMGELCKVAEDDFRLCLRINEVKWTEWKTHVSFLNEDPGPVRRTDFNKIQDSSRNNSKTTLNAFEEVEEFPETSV
Experiment: Single-channel recordings of TRPV3 in the inside-out configuration
Type: cell-based
Conditions: −80 mV
Procedure: HEK293T cells are cultured using Dulbecco's modified Eagle's medium containing 10% fetal bovine serum and 1% penicillin-streptomycin in a cell incubator with 5% CO2 at 37 °C. Plasmids of murine TRPV1, TRPV4, TRPM8, and human TRPV3, TRPA1 are labeled with YFP or GFP as indicators for subsequent electrophysiological recordings. Complementary DNA constructs of ion channels were transiently transfected with Lipofectamine 3000 (Invitrogen). And 12 to 18 h after transient transfection, electrophysiological recordings were performed.
Patch-clamp recordings were carried out with a HEKA EPC10 amplifier controlled by PatchMaster software (HEKA; https://www.heka.com/products/products_main.html#soft_pm) ([36]). Patch pipettes were prepared from borosilicate glass and fire-polished to the resistance of 3 to 8 MΩ by P-97 puller for whole-cell recordings. For single-channel recordings, patch pipettes were fire-polished to a higher resistance of 6 to 10 MΩ. Both bath solution and pipette solution contained 130 mM NaCl, 10 mM glucose, 0.2 mM EDTA, and 3 mM Hepes and were adjusted to pH 7.2 to 7.4 with NaOH. Whole-cell recordings and single-channel recordings were performed at ± 80 mV. The current was sampled at 10 kHz and filtered at 2.9 kHz. All recordings were performed at room temperature (25 °C). A gravity-driven system (RSC-200, Bio-Logic) with freely rotated perfusion tubes was used for the perfusion of ligands. Bath and ligand solutions were delivered through separate tubes to minimize the mixing of solutions. Patch pipette holding cells were placed in front of the perfusion tube outlet for perfusion. Igor Pro versions 5.05 and 9.05 (WaveMetrics; https://www.wavemetrics.com/products/igorpro) were used to analyze the data.

CCN(CCO)CCCC(C)Nc1ccnc2cc(Cl)ccc12 (stereo not drawn) [HCQ, hydroxychloroquine]
TRPV3 channel open probability (Po) (50 μM HCQ with 1 mM 2-APB): 0.50 ± 0.03 | TRPV3 channel open probability (Po) (100 μM HCQ with 1 mM 2-APB): 0.13 ± 0.04 | single-channel conductance (HCQ with 1 mM 2-APB, HCQ concentration not stated in the sentence (50 and 100 μM tested)): 37.97 ± 2.96 pS
